For series [1] the following is noted: 1H NMR in D2O (100% v/v); 0.10M sodium phosphate buffer, pH 7.4; ref [c]; cited from earlier work.
Series [2] can be described thus: Ka of boronic acids for saccharides by 1H NMR (H2O containing 2% D2O). In kind it is binding. Conditions: 1H NMR in H2O containing D2O (2% v/v); 0.10M sodium phosphate buffer, pH 7.4; this work. How it is done:
(§1) Methodology to determine the values of Ka for boronic acids and saccharides was adapted from work by Hall and coworkers. [13a, 13b]
(§2) A boronic acid (B) and a saccharide (S) were assumed to bind in one modality, B·S:
(§3) The [B·S]/[B] ratio was determined by the integration of aryl protons of the boronic acid.saccharide complex and the free boronic acid. The individual [B], [B·S], and [S] can be calculated from eq. 1-3.
(§4) Each value of Ka arose from at least two independent experiments with freshly prepared solutions, and each experiment consisted of a titration with 6-9 different concentrations.
(§5) All NMR spectra were analyzed with Topspin 3.0 software from Bruker AXS. NMR experiments were done in a 0.10 M NaH2PO4 buffer, pH 7.4, containing D2O (2% v/v). ^1H NMR experiments consisted of the first increment of a 2D NOSY with gradients for improved water suppression. […]
To a 25-mL volumetric flask, D-glucose (2.25 g, 12.5 mmol) and ˜20 mL of solution 1 was added. […] The [B·S]/[B] ratio was determined as depicted in FIG. 15. A value for Ka was calculated for every concentration as described above.
To a 25-mL volumetric flask, D-glucose (2.25 g, 12.5 mmol) and ˜20 mL of solution 2 was added. […] The [B·S]/[B] ratio was determined as depicted in FIG. 16. […] A value for Ka was calculated for every concentration as described above.

Assay in series [3]: as above
Conditions: 1H NMR in H2O containing D2O (2% v/v), 0.10M sodium phosphate buffer, pH 7.4, this work. The format is binding. How it is done:
as §1, §2, §3, §4
All NMR spectra were analyzed with Topspin 3.0 software from Bruker AXS. NMR experiments were done in a 0.10 M NaH2PO4 buffer, pH 7.4, containing D2O (2% v/v). ^1H NMR experiments consisted of the first increment of a 2D NOSY with gradients for improved water suppression.
A. Representative Procedure for Making a Phenylboronic Acid Solution NaH2PO4 (3.0 g, 25 mmol) and PBA (phenylboronic acid, 458 mg, 3.75 mmol) were dissolved in distilled, deionized water in a volumetric flask (˜200 mL H2O, 5 mL D2O). The pH was adjusted carefully to 7.4 using 10 M NaOH, and additional water was added for a final volume of 250 mL. Final solutions were 15 mM in the boronic acid (PBA=solution 1; benzoboroxole=solution 2) in 0.10 M sodium phosphate monobasic buffer, pH 7.4, containing D2O (2% v/v).
To a 25-mL volumetric flask, D-fructose (674 mg, 3.75 mmol) and ˜20 mL of solution 1 was added. The solution was adjusted carefully to pH 7.4 by the addition of 10 M NaOH. (The volume of added NaOH was used in the calculation of the boronic acid concentration.) The volume was then increased to 25 mL by adding solution 1. […] The [B·S]/[B] ratio was determined for every concentration as follows. […]
To a 25-mL volumetric flask, D-fructose (674 mg, 3.75 mmol) and ˜20 mL of solution 2 was added. […] The [B·S]/[B] ratio was determined as depicted in FIG. 14. A value for Ka was calculated for every concentration as described above.

For series [4] the following is noted: Competition with alizarin red S; 0.10M sodium phosphate buffer, pH 7.4; refs [b], [e]; cited from earlier work.
The conditions of series [5]: 1H NMR in D2O (100% v/v); 0.10M sodium phosphate buffer, pH 7.4; ref [c]; cited from earlier work. This is another data set of the same source.
For series [6] the following is noted: ref 13b; cited from earlier work.
Series [7] is described as follows: Ka of boronic acids for saccharides by 1H NMR (H2O containing 2% D2O). The format is binding. The settings on record: 1H NMR in H2O containing D2O (2% v/v); 0.10M sodium phosphate buffer, pH 7.4; this work. How it is done: as §1, §2, §3, §4, §5
To a […] volumetric flask, Neu5Ac (1.53 g, 5.0 mmol) and ˜20 mL of solution 1 was added. […] The [B·S]/[B] ratio was determined as depicted in FIG. 17. A value for Ka was calculated for every concentration as described above.
To a […] volumetric flask, Neu5Ac (1.56 g, […]) and ˜20 mL of solution 2 was added. […] The Ka value was calculated for every concentration as previously described. The [B·S]/[B] ratio was determined as illustrated in FIGS. 18 and 19. […] A value for Ka was calculated for every concentration as described above.
The source holds these as a separate data set.

For series [8] the following is noted: 11B NMR in H2O/D2O/MeOH mixture; ref [d]; cited from earlier work.
The conditions of series [9]: Competition with alizarin red S; 0.10M sodium phosphate buffer, pH 7.4; ref [b]; cited from earlier work.
The conditions of series [10]: Competition with alizarin red S; 0.10M sodium phosphate buffer, pH 7.4; ref [b]; cited from earlier work. The source holds these as a separate data set.

Molecules are shown by their SMILES. Where two headings read alike, the source gives them in different places.

We go through two compounds from patent US9732101B2, “Bioreversible boronates for delivery of molecules into cells” (WISCONSIN ALUMNI RESEARCH FOUNDATION, priority 2012, dated 2017).

In the case of `OCc1ccccc1B(O)O` [Benzoboroxole, 2-hydroxymethylphenylboronic acid], the “Ka for D-fructose” value in [1] is 606 M⁻¹; in series [3], 336 ± 43 M⁻¹; in [3] (listed as benzoxaborole), 336 M⁻¹. The figures for the “Ka for D-glucose” value in [2], in series [4] and in series [5] were 28 ± 4 M⁻¹, 31 M⁻¹ and 17 M⁻¹, respectively. Further, the “pKa of the HOB” value in series [6] is 7.2. For the same compound, the “Ka for Neu5Ac” value in [7] was 43 ± 5 M⁻¹.
With `OB(O)c1ccccc1` [PBA, Phenylboronic acid], the “Ka for D-fructose” value in series [1] was 79 M⁻¹; in series [3] it was 128 ± 20 M⁻¹; in [9], 160 M⁻¹. The “Ka for D-glucose” value in series [2] was 5 ± 1 M⁻¹; in series [4], 4.6 M⁻¹; in series [5] it was 0 M⁻¹. The “Ka for Neu5Ac” value is 11.6 ± 1.9 M⁻¹ in [8], 21 M⁻¹ in series [10] and 13 ± 1 M⁻¹ in series [7].
